The supplement of paper PMC10307832

Columns and labels:
Assay in all cases: relative viability (nuclei count vs DMSO), 5 days (fraction); higher = more cells survive
AGI-6780 = compound: O=C(Nc1cccc(C(F)(F)F)c1)Nc1cc(S(=O)(=O)NC2CC2)ccc1-c1ccsc1 [AGI-6780]
How it was run: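 Hoechst staining, done together with fixation and permeabilisation, marked nuclei for 4× imaging and MetaXpress counting. This followed 5 days without medium change after lung cancer cell lines, kept overnight at 37 °C in 1536-well plates, were pinned with five library-drug doses (not always all listed) spaced by √10 on vehicle-anchored plates. Viability is the ratio of treated-well to vehicle-well nuclei, expressed as a median across plates. Plates passed only at control CV below 25% with at least one doubling.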

AGI-6780 + Trametinib = compound: O=C(Nc1cccc(C(F)(F)F)c1)Nc1cc(S(=O)(=O)NC2CC2)ccc1-c1ccsc1 [AGI-6780] + CC(=O)Nc1cccc(-n2c(=O)n(C3CC3)c(=O)c3c(Nc4ccc(I)cc4F)n(C)c(=O)c(C)c32)c1 [Trametinib] (partner 0.02 µM)
How it was run: (§1)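 Relative viability was taken as the ratio of nuclei in treated wells to nuclei in vehicle wells. Lung cancer cell lines in 1536-well plates received compounds by pin tool one day after seeding, either one drug alone or a fixed anchor-drug dose plus five library-drug doses (not always all listed) in √10 steps. Nuclei were counted on 4× images after 5 days of treatment, and values are medians of duplicate plates.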

AGI-6780 + OSI-027 = compound: O=C(Nc1cccc(C(F)(F)F)c1)Nc1cc(S(=O)(=O)NC2CC2)ccc1-c1ccsc1 [AGI-6780] + COc1cccc2cc(-c3nc([C@H]4CC[C@H](C(=O)O)CC4)n4ncnc(N)c34)[nH]c12 [OSI-027] (partner 0.5 µM)
How it was run: as §1

AGI-6780 + Phenformin = compound: O=C(Nc1cccc(C(F)(F)F)c1)Nc1cc(S(=O)(=O)NC2CC2)ccc1-c1ccsc1 [AGI-6780] + N=C(N)NC(=N)NCCc1ccccc1 [Phenformin] (partner 250 µM)
How it was run: as §1

Row | Cell Line | relative viability (AGI-6780; 0.08 µM) | relative viability (AGI-6780; 0.253 µM) | relative viability (AGI-6780; 0.8 µM) | relative viability (AGI-6780; 2.53 µM) | relative viability (AGI-6780; 8 µM) | relative viability (AGI-6780 + Trametinib; first compound 0.08 µM) | relative viability (AGI-6780 + Trametinib; first compound 0.253 µM) | relative viability (AGI-6780 + Trametinib; first compound 0.8 µM) | relative viability (AGI-6780 + Trametinib; first compound 2.53 µM) | relative viability (AGI-6780 + Trametinib; first compound 8 µM) | relative viability (AGI-6780 + OSI-027; first compound 0.08 µM) | relative viability (AGI-6780 + OSI-027; first compound 0.253 µM) | relative viability (AGI-6780 + OSI-027; first compound 0.8 µM) | relative viability (AGI-6780 + OSI-027; first compound 2.53 µM) | relative viability (AGI-6780 + OSI-027; first compound 8 µM) | relative viability (AGI-6780 + Phenformin; first compound 0.08 µM) | relative viability (AGI-6780 + Phenformin; first compound 0.253 µM) | relative viability (AGI-6780 + Phenformin; first compound 0.8 µM) | relative viability (AGI-6780 + Phenformin; first compound 2.53 µM) | relative viability (AGI-6780 + Phenformin; first compound 8 µM)
1 | 201T | 0.996 | 1 | 0.997 | 0.989 | 0.995 | 0.705 | 0.731 | 0.715 | 0.72 | 0.773 | 0.713 | 0.694 | 0.723 | 0.325 | 0.753 | 0.495 | 0.41 | 0.486 | 0.427 | 0.492
2 | A549 | 0.992 | 0.992 | 1.08 | 0.745 | 0.992 | – | – | – | – | – | – | – | – | – | – | 0.153 | 0.177 | 0.25 | 0.133 | 0.175
3 | A-427 | 0.994 | 0.919 | 1.1 | 0.815 | 1.04 | – | 0.7 | 0.797 | 0.559 | 0.725 | 0.477 | 0.458 | 0.507 | 0.384 | 0.509 | 0.326 | 0.294 | 0.359 | 0.315 | 0.338
4 | ABC-1 | 0.799 | 1.06 | 1.08 | 0.851 | 0.901 | – | – | – | – | – | 0.469 | 0.524 | 0.688 | 0.55 | 0.595 | 0.218 | 0.263 | 0.238 | 0.263 | 0.197
5 | BEN | 0.834 | 0.959 | 1.04 | – | 0.957 | 0.897 | 0.999 | 1.14 | – | 0.993 | 0.311 | 0.298 | 0.321 | 0.28 | 0.304 | 0.25 | 0.281 | 0.289 | 0.288 | 0.28
6 | CAL-12T | 0.962 | 1.02 | 1.18 | 1.03 | 1.07 | 0.307 | 0.425 | 0.306 | 0.309 | 0.321 | 0.748 | 0.76 | 0.693 | 0.428 | 0.519 | 0.61 | 0.579 | 0.626 | 0.632 | 0.566
7 | COR-L23 | 1.05 | 1.12 | 0.949 | 1.06 | 1.01 | 0.601 | 0.536 | 0.529 | 0.379 | 0.568 | 0.743 | 0.77 | 0.705 | 0.527 | 0.784 | 0.457 | 0.489 | 0.424 | 0.408 | 0.506
8 | COR-L 105 | 0.985 | 0.943 | 1 | 0.881 | 1.02 | 0.465 | 0.576 | 0.464 | 0.397 | 0.351 | 0.783 | 0.669 | 0.719 | 0.582 | 0.72 | 0.407 | 0.461 | 0.507 | 0.524 | 0.539
9 | ChaGo-K-1 | 1.01 | 1.02 | 1.06 | 0.921 | 1 | 0.876 | 0.799 | 0.888 | 0.815 | 0.871 | 0.521 | 0.613 | 0.577 | 0.42 | 0.547 | 0.494 | 0.562 | 0.503 | 0.452 | 0.543
10 | EKVX | 0.986 | 1.03 | 0.938 | 0.799 | 0.969 | 0.32 | 0.383 | 0.392 | 0.386 | 0.312 | 0.663 | 0.665 | 0.721 | 0.649 | 0.716 | 0.23 | 0.245 | 0.252 | 0.25 | 0.251
11 | EMC-BAC-2 | – | 1.01 | 1.01 | 0.775 | 1.05 | – | 0.909 | 0.896 | 0.752 | 0.842 | 0.383 | 0.384 | 0.338 | 0.301 | 0.427 | 0.57 | 0.602 | 0.508 | 0.456 | 0.531
12 | EPLC-272H | 0.774 | 1.15 | 1.12 | 0.807 | 0.927 | 0.285 | 0.328 | 0.291 | 0.254 | 0.312 | – | 0.282 | 0.247 | 0.245 | 0.293 | – | 0.341 | 0.243 | 0.28 | 0.274
13 | H3255 | 0.956 | 1.03 | 1.04 | 0.826 | 0.97 | 0.595 | 0.592 | 0.668 | – | 0.609 | 0.667 | 0.55 | 0.551 | 0.523 | 0.584 | 0.39 | 0.381 | 0.384 | 0.358 | 0.385
14 | HARA | 1.04 | 1.15 | 1.02 | 0.942 | 1.17 | 1.02 | 0.638 | 0.685 | 0.707 | 0.628 | 0.573 | 0.594 | 0.339 | 0.197 | 0.514 | 0.402 | 0.483 | 0.436 | 0.324 | 0.399
15 | HCC-15 | 1.09 | 1.06 | 1.1 | 0.808 | 1.05 | 0.369 | 0.426 | 0.349 | 0.309 | 0.369 | 0.743 | 0.763 | 0.783 | 0.458 | 0.725 | 0.551 | 0.525 | 0.505 | 0.428 | 0.47
